Patent US20120142730A1 (priority 2010, published 2012)

System: subjects with relapsing remitting multiple sclerosis (RRMS)
Experiment: ALLEGRO phase III trial: MRI endpoints (lesions, brain volume, MTR, 1H-MRS)
Assay type: in vivo, human
Design: key to BA from M12 to M24: percent change of brain volume (SIENA); Change in average MTR of T2 visible lesions / T2 volume / Hypointense T1 volume / GdE volume: unit not given here
Conditions: for BA at month 12, reduction / BA (brain atrophy, percent brain volume change) at month 12: baseline to 12 months
Protocol: Eligible subjects were equally randomized 1:1 into one of the following treatment arms: • 1. […] 21, 2007 (see, page 10, line 5 to page 11, line 3). • 2. Matching placebo for laquinimod arm: one capsule is administered once daily. MRI related secondary endpoints were the cumulative number of GdE lesions at months 12 and 24; and the cumulative number of new T2 lesions (relative to previous scan) at months 12 and 24; MRI exploratory endpoints included percent change of brain volume using SIENA.^10 Additional MRI methodological details are as follows: In all patients, MRI scans were performed at 0, 12, and 24 months. Before a site could enrol study participants they were required to image a volunteer patient with definite MS twice with repositioning according to a strict study imaging protocol using scanners with a minimum field strength of 1.5T. Fast/turbo spin echo (repetition time [TR]=2200-3500 ms, echo time [TE]=14-50/90-120 ms, echo train length=2-7, slice thickness=3 mm, and contiguous axial slices= • 44) sequences were used to obtain proton density and T2-weighted images. High resolution pre-contrast 3D T1-weighted sequences (TR=8-15 ms, TE=3-5 ms, inversion time=1.1 s, number of slices 160, slice thickness 1.2 mm, flip angle [FA]=10-15, orientation sagittal) were acquired for quantification of brain atrophy. Finally, T1-weighted images (1.5 T scanners: conventional spin echo sequence; TR=600-650 ms, TE=10-20 ms, slice thickness=3 mm, and contiguous axial slices=44; 3.0 T scanners: 3D sequence; TR=5-9 ms, TE=2-5 ms, FA=15, slice thickness=3 mm, and contiguous axial slices=44) were obtained 5 minutes after injection of 0.1 mmol/kg of gadolinium. A series of axial, coronal, and sagittal images was obtained to create an axial reference scan for subsequent careful repositioning of each patient at the follow-up session. Axial slices were positioned to run parallel to a line joining the most inferioanterior and inferioposterior parts of the corpus callosum. Image quality was reviewed at the MRI-AC using predetermined criteria. The identification of GdE and T2-hyperintense lesions was done by consensus of two experienced observers. The number of total and new GdE lesions and new/enlarging T2-hyperintense lesions were counted. The identified lesions were then outlined by trained technicians using a semiautomated segmentation technique based on local thresholding (Jim 4.0; […] System, Leicester, UK) and lesion volumes were calculated automatically. Percentage brain volume changes and cross-sectional normalized brain volumes were measured on […] T1-weighted images, with Structural Image Evaluation of Normalized Atrophy (SIENA) software and a cross-sectional method ([…]) (available from the FMRIB Software Library, Oxford University, Oxford, UK; http://www.fmrib.ox.ac.uk/analysis/research/[…]). Analyses of the secondary MRI endpoints of the cumulative number of GdE and new/enlarging T2 lesions at 12 and 24 months involved a baseline-adjusted negative binomial regression with an “offset” employing the log of the relative exposure to adjust for early-terminated patients. The model included as covariates the number of enhancing lesions at baseline, and country or geographical region. In the case of new/enlarging T2 lesion analysis, the baseline T2 lesion volume was also added. […] The analysis of the brain atrophy endpoint involved a baseline-adjusted analysis of covariance (ANCOVA). The covariates were the number of GdE lesions at baseline and the country or region. The exploratory endpoints were all analyzed at a significance level of 5%. Secondary endpoints of the ALLEGRO trial included disease activity as measured by MRI, including counts of Gadolinium enhancing T1 lesions and new-T2 hyperintense lesions. […] Conventional MRI scans for new T1 hypointense lesions, and brain volume using SIENA were performed at baseline, 12 and 24 months. […]

[1] = 0.6 mg daily oral vs placebo, listed as laquinimod
[2] = 0.6 mg daily oral, listed as laquinimod
[3] = post-hoc, not naïve, vs placebo

## CCN(C(=O)c1c(O)c2c(Cl)cccc2n(C)c1=O)c1ccccc1 [Laquinimod, laquinimod]
0.6 mg daily oral
  Cumulative new Hypointense T1 lesions months 12 + 24, mean: 1.468
  Cumulative number of GdE lesions at months 12 and 24, mean: 1.332
  Cumulative number of GdE lesions at months 12 and 24, median: 0.00
  Cumulative number of new/enlarging T2 lesions at 12 and 24 months, mean: 5.032
  BA (brain atrophy, percent brain volume change) at month 12: −0.358%
0.6 mg daily oral vs placebo
  Cumulative new Hypointense T1 lesions months 12 + 24, reduction: 27% reduction
  Cumulative number of new/enlarging T2 lesions at 12 and 24 months, reduction: 30% reduction
  Percent change of brain volume baseline to month 24, reduction in brain atrophy: 32.8% reduction
  Percent change of brain volume from baseline to month 24, adjusted mean difference: 0.426
  BA at month 12, reduction: 53% reduction
[1]
  BA at month 12, reduction: 51.7%
  Cumulative new Hypointense T1 lesions months 12 + 24, reduction: 26.7%
  Cumulative number of new/enlarging T2 lesions at 12 and 24 months, reduction: 30%
  Percent change of brain volume baseline to month 24, reduction in brain atrophy: 32.8%
0.6 mg daily oral, SIENA
  Percent change of brain volume from baseline to month 24, adjusted mean change: −0.871%
[2]
  BA (brain atrophy, percent brain volume change) at month 12: −0.358%
  Cumulative new Hypointense T1 lesions months 12 + 24, mean: 1.47
1H-MRS subgroup, n=12
  Adjusted mean change in NAA/Cr from baseline to month 24: 0.087
MT MRI subgroup, n=43
  Change in average MTR of T2 visible lesions: −0.005
MT MRI subgroup, n=44
  Change in mean MTR whole brain from baseline to last observed value (LOV): +0.045
MT MRI subgroup, p=0.0180
  Change in mean MTR whole brain baseline to LOV, difference from placebo: 0.483
MT MRI subgroup, p=0.1007
  Change in average MTR of T2 visible lesions, difference from placebo: 0.330
Baseline to month 24
  Hypointense T1 volume, change BL to M24: 7%^
  T2 volume, change BL to M24: 11.5%^
Month 12
  Hypointense T1 volume: 2.805
  T2 volume: 8.005
Month 12, vs placebo
  Hypointense T1 volume, effect: ~1%
  T2 volume, effect: 5%
Month 24
  Hypointense T1 volume: 2.829
  T2 volume: 8.111
Month 24, vs placebo
  Hypointense T1 volume, effect: ~1%
  T2 volume, effect: 5%
post-hoc
  BA for pts with all scans, change BL to M12: −0.337
  BA for pts with all scans, change BL to M24: −0.855
  BA from M12 to M24: −0.548
post-hoc, GdE = 0
  % BV change M24: −0.859%
post-hoc, GdE = 0, vs placebo
  % BV change M24, reduction: 30% reduction
post-hoc, GdE > 0
  % BV change M24: −0.881%
post-hoc, GdE > 0, vs placebo
  % BV change M24, reduction: 37% reduction
post-hoc, M12
  GdE counts: 0.731
  GdE lesion free: 69% ^
  GdE volume: 1.058
  New T2 lesion #: 2.81
  New-T1 Hypointense Lesions: 1.074
  T1 Hypointense Lesion free: 56.3% ^
  T2 lesion free: 30.8% ^
post-hoc, M12, vs placebo
  GdE counts, reduction: 36% reduction
  GdE lesion free, effect on odds: 49% odds
  GdE volume, effect: 4.5%
  New T2 lesion #, effect: 33.5%
  New-T1 Hypointense Lesions, reduction: 27% reduction
  T1 Hypointense Lesion free, effect on odds: 28% odds
  T2 lesion free, effect on odds: 39% odds
post-hoc, M24
  GdE counts: 0.482
  GdE lesion free: 74.5% ^
  GdE volume: 1.045
  New T2 lesion #: 4.45
  New-T1 Hypointense Lesions: 1.230
  T1 Hypointense Lesion free: 52.8% ^
  T2 lesion free: 20.3% ^
post-hoc, M24, vs placebo
  GdE counts, reduction: 39% reduction
  GdE lesion free, effect on odds: 72% odds
  GdE volume, effect: 4.7%
  New T2 lesion #, effect: 31.5%
  New-T1 Hypointense Lesions, reduction: 32% reduction
  T1 Hypointense Lesion free, effect on odds: 47% odds
  T2 lesion free, effect on odds: 40% odds
post-hoc, MRI free NO
  % BVC BL to M24: −1.001%
post-hoc, MRI free NO, vs placebo
  % BVC BL to M24, effect: 65.5%
post-hoc, MRI free YES
  % BVC BL to M24: −0.533%
post-hoc, MRI free YES, vs placebo
  % BVC BL to M24, effect: 45.5%
post-hoc, naïve
  % BV change by previous medications: −0.82%
  Cum # T1 GdE by previous medications: 1.135
  Cum New T2 by previous medications: 4.967
  T1 hypointense by previous medications: 1.585
post-hoc, naïve, vs placebo
  % BV change by previous medications, reduction: 38% reduction
  Cum # T1 GdE by previous medications, reduction: 42% reduction
  Cum New T2 by previous medications, reduction: 33% reduction
  T1 hypointense by previous medications, reduction: 28% reduction
post-hoc, not naive
  Cum # T1 GdE by previous medications: 1.746
post-hoc, not naive, vs placebo
  Cum # T1 GdE by previous medications, reduction: 32% reduction
post-hoc, not naïve
  % BV change by previous medications: −0.954%
  Cum New T2 by previous medications: 5.075
  T1 hypointense by previous medications: 1.217
[3]
  % BV change by previous medications, reduction: 23% reduction
  Cum New T2 by previous medications, reduction: 24% reduction
  T1 hypointense by previous medications, reduction: 25% reduction
post-hoc, vs placebo
  BA for pts with all scans, change BL to M12, effect: 60%
  BA for pts with all scans, change BL to M24, effect: 57%
